Data taken from US6737383B1, “Herbicidal oxadiazolidines” (priority 1999, dated 2004).

What was measured:
blackgrass = assay: Test B pre/postemergence blackgrass; assay type: in vivo, Alopecurus myosuroides
Summary of the method: (§1)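 Test chemicals in a non-phytotoxic solvent mixture with surfactant were sprayed preemergence onto planted seeds and postemergence onto plants 2 to 18 cm tall (1- to 4-leaf stage). After twelve to sixteen days in a greenhouse, injury was visually rated against untreated controls from 0 (no effect) to 10 (complete control).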

pigweed = assay: Test B pre/postemergence pigweed; assay type: in vivo, Amaranthus retroflexus
Summary of the method: as §1

crabgrass = assay: Test B pre/postemergence crabgrass; assay type: in vivo, Digitaria sanguinalis
Summary of the method: as §1

cocklebur = assay: Test B pre/postemergence cocklebur; assay type: in vivo, Xanthium strumarium
Summary of the method: as §1

smallflower flatsedge = assay: Test B flood test smallflower flatsedge; assay type: in vivo, Cyperus difformis
Summary of the method: (§2)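 Read-out is a visual response score from 0 (no effect) to 10 (complete control), assigned by comparison with untreated controls. Treatment was applied at the 2-leaf stage, and plants stayed in the greenhouse for twelve to sixteen days before scoring.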

duck salad = assay: Test B flood test duck salad; assay type: in vivo, Heteranthera limosa
Summary of the method: as §2

corn = assay: Test B pre/postemergence corn; assay type: in vivo, Zea mays
Summary of the method: as §1

morningglory = assay: Test B pre/postemergence morningglory; assay type: in vivo, Ipomoea hederacea
Summary of the method: as §1

wheat = assay: Test B pre/postemergence wheat; assay type: in vivo, Triticum aestivum
Summary of the method: as §1

rice = assay: Test B flood test rice; assay type: in vivo, Oryza sativa
Summary of the method: as §2

rape = assay: Test B pre/postemergence rape; assay type: in vivo, Brassica napus
Summary of the method: as §1

velvetleaf = assay: Test B pre/postemergence velvetleaf; assay type: in vivo, Abutilon theophrasti
Summary of the method: as §1

sugar beet = assay: Test B pre/postemergence sugar beet; assay type: in vivo, Beta vulgaris
Summary of the method: as §1

purple nutsedge = assay: Test B pre/postemergence purple nutsedge; assay type: in vivo, Cyperus rotundus
Summary of the method: as §1

giant foxtail = assay: Test B pre/postemergence giant foxtail; assay type: in vivo, Setaria faberii
Summary of the method: as §1

soybean = assay: Test B pre/postemergence soybean; assay type: in vivo, Glycine max
Summary of the method: as §1

[1] = Postemergence, Rate 62 g/ha, scale 0 to 10, 0 is no effect, 10 is complete control
[2] = Postemergence, Rate 125 g/ha, scale of 0 to 10 where 0 is no effect and 10 is complete control
[3] = Preemergence, Rate 125 g/ha, scale of 0 to 10 where 0 is no effect and 10 is complete control
[4] = Preemergence, Rate 250 g/ha, scale 0 (no effect) to 10 (complete control)
[5] = Rate 62 g/ha, Preemergence, scale 0 to 10
[6] = Rate 250 g/ha, Postemergence, scale 0 to 10, 0 is no effect, 10 is complete control
[7] = Rate 500 g/ha, Postemergence, scale 0 to 10, 0 is no effect, 10 is complete control
[8] = Rate 500 g/ha, Preemergence, scale 0 to 10 (0 no effect, 10 complete control)
[9] = Pre-emergence, Rate 62 g/ha, scale 0 to 10, 0 is no effect, 10 is complete control
[10] = Rate 125 g/ha, Pre-emergence section (flood test species), scale 0 to 10, 0 no effect, 10 complete control
[11] = Rate 250 g/ha, Pre-emergence (flood test species), scale 0 to 10, 0 is no effect, 10 is complete control
[12] = Rate 500 g/ha, Pre-emergence section of Table B, 0 to 10 scale (0 no effect, 10 complete control)

In the case of `CC(C)N(C(=O)n1oc(=O)n(CCN(C)C(=O)c2ccccc2)c1=O)c1ccc(F)cc1` [Compound 741], the “Plant response rating, Blackgrass” value (blackgrass; [1]) was 0, the “Blackgrass plant response rating” value (blackgrass; [2]) was 0 and the “Plant response rating, Blackgrass” value (blackgrass; [3]) was 0. The “Blackgrass plant response rating” value (blackgrass; [4]) was 0, the “Blackgrass plant response rating” value (blackgrass; [5]) was 0 and the “Blackgrass plant response rating” value (blackgrass; [6]) was 0. For the same compound, the “Blackgrass plant response rating” value (blackgrass; [7]) was 0, the “Blackgrass plant response rating” value (blackgrass; [8]) was 0 and the “Plant response rating, Redroot pigweed” value (pigweed; [1]) was 3. For the same compound, the “Redroot pigweed plant response rating” value (pigweed; [2]) was 7, the “Plant response rating, Redroot pigweed” value (pigweed; [3]) was 0 and the “Redroot pigweed plant response rating” value (pigweed; [4]) was 0. For the same compound, the “Redroot pigweed plant response rating” value (pigweed; [5]) was 0, the “Redroot pigweed plant response rating” value (pigweed; [6]) was 7 and the “Redroot pigweed plant response rating” value (pigweed; [7]) was 7. For the same compound, the “Redroot pigweed plant response rating” value (pigweed; [8]) was 7, the “Plant response rating, Crabgrass” value (crabgrass; [1]) was 9 and the “Plant response rating, Crabgrass” value (crabgrass; [3]) was 5. The “Crabgrass plant response rating” value (crabgrass; [4]) was 5, the “Crabgrass plant response rating” value (crabgrass; [5]) was 5 and the “Crabgrass plant response rating” value (crabgrass; [6]) was 9. The “Crabgrass plant response rating” value (crabgrass; [8]) was 10, the “Plant response rating, Cocklebur” value (cocklebur; [1]) was 0 and the “Cocklebur plant response rating” value (cocklebur; [2]) was 0. For the same compound, the “Plant response rating, Cocklebur” value (cocklebur; [3]) was 0, the “Cocklebur plant response rating” value (cocklebur; [4]) was 0 and the “Cocklebur plant response rating” value (cocklebur; [5]) was 0. The “Cocklebur plant response rating” value (cocklebur; [6]) was 0, the “Cocklebur plant response rating” value (cocklebur; [7]) was 0 and the “S. Flatsedge plant response rating” value (smallflower flatsedge; [9]) was 0. For the same compound, the “S. Flatsedge plant response rating” value (smallflower flatsedge; [10]) was 0, the “S. Flatsedge plant response rating” value (smallflower flatsedge; [11]) was 0 and the “S. Flatsedge plant response rating” value (smallflower flatsedge; [12]) was 8. The “Ducksalad plant response rating” value (duck salad; [9]) was 0, the “Ducksalad plant response rating” value (duck salad; [10]) was 0 and the “Ducksalad plant response rating” value (duck salad; [11]) was 0. The “Ducksalad plant response rating” value (duck salad; [12]) was 0, the “Plant response rating, Corn” value (corn; [1]) was 0 and the “Corn plant response rating” value (corn; [2]) was 0. For the same compound, the “Plant response rating, Corn” value (corn; [3]) was 0, the “Corn plant response rating” value (corn; [4]) was 0 and the “Corn plant response rating” value (corn; [5]) was 0. The “Corn plant response rating” value (corn; [6]) was 0, the “Corn plant response rating” value (corn; [7]) was 0 and the “Corn plant response rating” value (corn; [8]) was 0. The “Morningglory plant response rating” value (morningglory; [2]) was 1, the “Plant response rating, Morningglory” value (morningglory; [3]) was 0 and the “Morningglory plant response rating” value (morningglory; [4]) was 0. The “Morningglory plant response rating” value (morningglory; [5]) was 0, the “Morningglory plant response rating” value (morningglory; [6]) was 5 and the “Morningglory plant response rating” value (morningglory; [7]) was 3. For the same compound, the “Morningglory plant response rating” value (morningglory; [8]) was 0, the “Plant response rating, Wheat” value (wheat; [1]) was 0 and the “Wheat plant response rating” value (wheat; [2]) was 0. For the same compound, the “Plant response rating, Wheat” value (wheat; [3]) was 0, the “Wheat plant response rating” value (wheat; [4]) was 0 and the “Wheat plant response rating” value (wheat; [5]) was 0. For the same compound, the “Wheat plant response rating” value (wheat; [6]) was 0, the “Wheat plant response rating” value (wheat; [7]) was 3 and the “Wheat plant response rating” value (wheat; [8]) was 4. The “Rice plant response rating” value (rice; [9]) was 0, the “Rice plant response rating” value (rice; [10]) was 0 and the “Rice plant response rating” value (rice; [11]) was 0. The “Rice plant response rating” value (rice; [12]) was 0, the “Plant response rating, Rape” value (rape; [1]) was 0 and the “Rape plant response rating” value (rape; [2]) was 0. For the same compound, the “Plant response rating, Rape” value (rape; [3]) was 0, the “Rape plant response rating” value (rape; [4]) was 0 and the “Rape plant response rating” value (rape; [5]) was 0. The “Rape plant response rating” value (rape; [6]) was 0, the “Rape plant response rating” value (rape; [7]) was 0 and the “Rape plant response rating” value (rape; [8]) was 0. For the same compound, the “Plant response rating, Velvetleaf” value (velvetleaf; [1]) was 0, the “Velvetleaf plant response rating” value (velvetleaf; [2]) was 0 and the “Plant response rating, Velvetleaf” value (velvetleaf; [3]) was 3. For the same compound, the “Velvetleaf plant response rating” value (velvetleaf; [4]) was 3, the “Velvetleaf plant response rating” value (velvetleaf; [5]) was 0 and the “Velvetleaf plant response rating” value (velvetleaf; [6]) was 0. For the same compound, the “Velvetleaf plant response rating” value (velvetleaf; [7]) was 1, the “Velvetleaf plant response rating” value (velvetleaf; [8]) was 3 and the “Plant response rating, Sugarbeets” value (sugar beet; [1]) was 0. For the same compound, the “Sugarbeets plant response rating” value (sugar beet; [2]) was 0, the “Plant response rating, Sugarbeets” value (sugar beet; [3]) was 0 and the “Sugarbeets plant response rating” value (sugar beet; [4]) was 0. For the same compound, the “Sugarbeets plant response rating” value (sugar beet; [5]) was 0, the “Sugarbeets plant response rating” value (sugar beet; [6]) was 4 and the “Sugarbeets plant response rating” value (sugar beet; [7]) was 4. For the same compound, the “Sugarbeets plant response rating” value (sugar beet; [8]) was 4, the “Plant response rating, Nutsedge” value (purple nutsedge; [1]) was 0 and the “Nutsedge plant response rating” value (purple nutsedge; [2]) was 0. The “Plant response rating, Nutsedge” value (purple nutsedge; [3]) was 0, the “Nutsedge plant response rating” value (purple nutsedge; [4]) was 0 and the “Nutsedge plant response rating” value (purple nutsedge; [5]) was 0. For the same compound, the “Nutsedge plant response rating” value (purple nutsedge; [6]) was 0, the “Nutsedge plant response rating” value (purple nutsedge; [7]) was 0 and the “Nutsedge plant response rating” value (purple nutsedge; [8]) was 0. The “Plant response rating, Giant foxtail” value (giant foxtail; [1]) was 0, the “Giant foxtail plant response rating” value (giant foxtail; [2]) was 0 and the “Plant response rating, Giant foxtail” value (giant foxtail; [3]) was 2. For the same compound, the “Giant foxtail plant response rating” value (giant foxtail; [4]) was 9, the “Giant foxtail plant response rating” value (giant foxtail; [5]) was 0 and the “Giant foxtail plant response rating” value (giant foxtail; [6]) was 3. For the same compound, the “Giant foxtail plant response rating” value (giant foxtail; [7]) was 4, the “Giant foxtail plant response rating” value (giant foxtail; [8]) was 10 and the “Plant response rating, Soybean” value (soybean; [1]) was 2. The “Soybean plant response rating” value (soybean; [2]) was 2, the “Plant response rating, Soybean” value (soybean; [3]) was 0 and the “Soybean plant response rating” value (soybean; [4]) was 0. The “Soybean plant response rating” value (soybean; [5]) was 0, the “Soybean plant response rating” value (soybean; [6]) was 3 and the “Soybean plant response rating” value (soybean; [7]) was 3. The “Soybean plant response rating” value (soybean; [8]) was 0.
